Columns and labels:
[1] = GC-MS analysis of stilbenes in mice serum; type: in vivo, SCID mice; conditions: GC-MS retention time and mass spectrum compared to standards
HT-29 xenograft = HT-29 xenograft tumor growth in SCID mice; type: in vivo; conditions: 10 mg/kg i.p. once daily, after 3 weeks
PCNA = PCNA in HT-29 tumors by western blotting and immunohistochemistry; type: in vivo, SCID mice; conditions: western blotting and immunohistochemistry of HT-29 tumors
p27 = p27 in HT-29 tumors by western blotting and immunohistochemistry; type: in vivo, SCID mice; conditions: western blotting and immunohistochemistry of HT-29 tumors
yeast = yeast assays, mimics calorie restriction by stimulating Sir2; cited from earlier work

Row | SMILES | Configuration (cis/trans) found in the serum [1] | Tumor weight decrease compared to the control (HT-29 xenograft) | further results
1 | COc1cc(/C=C\c2ccc(N)cc2)cc(OC)c1 [Compound 4, (Z)-4-(3,5-dimethoxystyryl)aniline] | isomerized to 3 | – | –
2 | COC(=O)c1ccc(/C=C/c2cc(OC)cc(OC)c2)cc1 [Compound 5, (E)-Methyl-4-(3,5-dimethoxystyryl)benzoate] | retained their configurations | – | –
3 | COC(=O)c1ccc(/C=C\c2cc(OC)cc(OC)c2)cc1 [Compound 6, (Z)- Methyl 4-(3,5-dimethoxystyryl)benzoate] | retained their configurations | – | –
4 | COc1ccc(/C=C/c2cc(OC)cc(OC)c2)cc1 [Compound 9, (E)-1,3-dimethoxy-5-(4-methoxystyryl)benzene] | retained their configurations | 21% | Tumor volume lower compared to the control (HT-29 xenograft): 45%; PCNA levels in tumors (PCNA): lowered; p27 levels in tumors (p27): increased
5 | COc1ccc(/C=C\c2cc(OC)cc(OC)c2)cc1 [Compound 10, (Z)-1,3-dimethoxy-5-(4-methoxystyryl)benzene] | retained their configurations | 15% | –
6 | Oc1ccc(/C=C/c2cc(O)cc(O)c2)cc1 [Compound 17, Resveratrol] | – | – | extended lifespan (yeast): 70%
